Test [1] has as its target T1, Adenosine receptor A1 (Rattus norvegicus, UniProt P25099).
T1 sequence (P25099 whole entry): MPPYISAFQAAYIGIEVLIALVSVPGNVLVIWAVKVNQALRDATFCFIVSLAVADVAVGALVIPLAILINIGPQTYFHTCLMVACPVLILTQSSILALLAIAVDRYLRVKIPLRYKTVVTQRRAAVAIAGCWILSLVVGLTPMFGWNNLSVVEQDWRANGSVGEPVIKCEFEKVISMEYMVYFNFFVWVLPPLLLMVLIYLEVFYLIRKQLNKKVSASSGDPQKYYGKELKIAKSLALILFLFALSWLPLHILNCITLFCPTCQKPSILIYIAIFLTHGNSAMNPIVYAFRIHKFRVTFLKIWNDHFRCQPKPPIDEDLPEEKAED
The test is described as follows: Displacement of [3H]DPCPX from adenosine receptor A1 in rat brain membrane. It is filed as cell membranes. For orientation: In a radioligand displacement assay an active substance lowers the binding of a labelled ligand.

Another test addresses Adenosine receptor A2a (Rattus norvegicus, UniProt P30543). The test is described as follows: Displacement of [3H]NECA from adenosine receptor A2a in rat striatial membrane. Format: cell membranes.
Test [2] is filed under the species Rattus norvegicus. The test is described as follows: Selectivity index, ratio of Ki for adenosine receptor A1 in rat brain membrane to Ki for adenosine receptor A2a in rat striatal membrane. Format: cell membranes.
The species named for test [3] is Rattus norvegicus. The test is described as follows: Selectivity index, ratio of Ki for adenosine receptor A2a in rat striatal membrane to Ki for adenosine receptor A1 in rat brain membrane. Format: cell membranes.
Test [4] in a line: Antagonist activity at adenosine receptor A2a in [3H]adenine-labeled guinea pig cerebral cortical slices assessed as inhibition of 2-chloroadenosine-stimulated [3H]-cAMP accumulation. Also noted: species or system Cavia porcellus.
Test [5] concerns the target T1, Adenosine receptor A1. The test is described as follows: Displacement of [3H]DPCPX from adenosine receptor A1 in rat brain membrane in presence of GTP by GTP shift assay. Format: cell membranes.
Test [6] has as its target T2, Adenosine receptor A1 (Rattus norvegicus) (UniProt P25099).
T2 sequence (whole entry): T1 sequence (P25099 whole entry)
The test is described as follows: Ratio of Ki for adenosine receptor A1 in rat brain membrane in presence of GTP to Ki for adenosine receptor A1 in rat brain membrane in absence of GTP. It is filed as cell membranes.

These results are taken from ChEMBL document CHEMBL4041492 (Eur J Med Chem, 2017).

The term pKi denotes the Ki on a negative log10 scale, so that one unit is a factor of ten.

Structures are written as SMILES. pKi: −log10 of the molar value.

Sequence of Adenosine receptor A2a (P30543 whole entry): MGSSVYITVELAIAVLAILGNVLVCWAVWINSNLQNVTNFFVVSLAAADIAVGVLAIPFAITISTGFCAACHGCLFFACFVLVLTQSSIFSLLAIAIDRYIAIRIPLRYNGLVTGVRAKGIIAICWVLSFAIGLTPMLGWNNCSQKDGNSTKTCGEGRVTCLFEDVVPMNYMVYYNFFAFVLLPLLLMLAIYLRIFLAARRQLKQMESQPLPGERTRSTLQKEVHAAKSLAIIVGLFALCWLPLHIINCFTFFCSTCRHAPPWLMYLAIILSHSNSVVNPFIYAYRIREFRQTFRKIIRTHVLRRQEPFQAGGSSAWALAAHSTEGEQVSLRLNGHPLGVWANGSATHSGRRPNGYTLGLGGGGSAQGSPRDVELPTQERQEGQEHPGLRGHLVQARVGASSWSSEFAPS

Take `Cn1c(=O)c2c(nc(SCc3ccccc3)n2C)n(C)c1=O`: the figures for the pKi on Adenosine receptor A1 [1] and at Adenosine receptor A2a were 5.36 and 5.33, respectively. In addition, the Ratio Ki worked out at 0.9 in the test filed under Rattus norvegicus [2] and 1.1 in the test filed under Rattus norvegicus [3].

Take `Cn1c(=O)c2c(ncn2C)n(C)c1=O` [CAFFEINE]: in test [4], the pKi is 4.30.

In the case of `Cn1c(=O)c2c(nc(OCc3ccc(Cl)cc3)n2C)n(C)c1=O`, the pKi was 4.76 at Adenosine receptor A1 [1] and 5.48 on Adenosine receptor A2a. Further, the Ratio Ki in the test listed under Rattus norvegicus [2] worked out at 5.3; in the test listed under Rattus norvegicus [3], 0.2.

`Cn1c(=O)c2c(nc(COc3ccc(Cl)cc3)n2C)n(C)c1=O`: the pKi at Adenosine receptor A1 [1] is 5.12; at Adenosine receptor A2a, 5.88. Moreover, the values for the Ratio Ki in the test listed under Rattus norvegicus [2] and in the test filed under Rattus norvegicus [3] were 5.7 and 0.2, respectively.

On to `Cn1c(=O)c2c(nc(CSc3ccccc3)n2C)n(C)c1=O`, for which the pKi was 5.31 on Adenosine receptor A1 [1] and 5.48 on Adenosine receptor A2a. The values for the Ratio Ki in the test filed under Rattus norvegicus [2] and in the test listed under Rattus norvegicus [3] were 1.5 and 0.8, respectively.

Turning to `Cn1c(=O)c2c(nc(OCc3ccccc3)n2C)n(C)c1=O`, the pKi on Adenosine receptor A1 [1] is 5.82; on Adenosine receptor A2a, 5.37; on Adenosine receptor A1 [5], 5.71. In addition, the Ratio Ki in the test filed under Rattus norvegicus [2] came to 0.4; in the test listed under Rattus norvegicus [3] it was 2.8; in test [6], 1.2.

On to `Cn1c(=O)c2c(nc(CCc3ccccc3)n2C)n(C)c1=O`, for which the Ratio Ki in the test filed under Rattus norvegicus [2] is 1.2; in the test filed under Rattus norvegicus [3] it was 0.9.

Turning to `Cn1c(=O)c2c(nc(COc3ccccc3)n2C)n(C)c1=O`, on Adenosine receptor A1 [5], the pKi is 5.40. Besides, the Ratio Ki came out at 1.3 in the test filed under Rattus norvegicus [2], 0.8 in the test listed under Rattus norvegicus [3] and 1.3 in test [6].

For the compound `Cn1c(=O)c2c(nc(CSc3ccc(Cl)cc3)n2C)n(C)c1=O`, the results for the pKi at Adenosine receptor A1 [1] and on Adenosine receptor A2a were 4.68 and 5.82, respectively. The Ratio Ki in the test filed under Rattus norvegicus [2] was 13.9; in the test listed under Rattus norvegicus [3], 0.1.

With `Cn1c(=O)c2c(nc(NCc3ccccc3)n2C)n(C)c1=O`, the pKi on Adenosine receptor A1 [1] is 5.10; on Adenosine receptor A2a it was 5.35. The Ratio Ki in the test listed under Rattus norvegicus [2] turned out to be 1.8; in the test filed under Rattus norvegicus [3], 0.6.

In the case of `Cn1c(=O)c2c(nc(SCc3ccc(Cl)cc3)n2C)n(C)c1=O`, the results for the pKi at Adenosine receptor A1 [1] and on Adenosine receptor A2a were 4.05 and 4.29, respectively. Further, the Ratio Ki in the test listed under Rattus norvegicus [2] worked out at 1.8; in the test listed under Rattus norvegicus [3] it was 0.6.
